Experimental data reported in patent US20030003396A1, “Optical data carrier comprising a merocyanine dye as light-absorbent compound in the information layer” (priority 2001, published 2003).

Tests used:
[1] = UV absorption spectra measured in solution; format: physicochemical; conditions: for ε (molar extinction coefficient): at absorption maximum; for λ1/2-λ1/10: short wavelength flank
Text: In the case of a write-once optical data carrier according to the invention which is written on and read by means of the light of a blue laser, preference is given to merocyanine dyes whose absorption maximum λmax1 is in the range from 340 to 410 nm, […] half of the […] one tenth of the absorbance value at λmax1 are preferably not more than 50 nm apart. Such a merocyanine dye preferably has no longer-wavelength maximum λmax2 up to a wavelength of 500 nm, particularly preferably up to 550 nm, very particularly preferably up to 600 nm.
The absorption spectra are measured, for example, in solution.
Suitable merocyanines having the required spectral properties are, in particular, those in which the dipole moment change Δμ=|μg−μag|, i.e. the positive difference between the dipole moments in the ground state and in the first excited state, is very small, preferably <5 D, particularly preferably <2 D. A method of determining such a dipole moment change Δμ is described, for example, in F. Würthner et al., Angew. Chem. 1997, 109, 2933, and in the literature cited therein. A low solvent-induced wavelength shift (dioxane/DMF) is likewise a suitable selection criterion. Preference is given to merocyanines whose solvent-induced wavelength shift Δλ=|λDMF−λdioxane|, i.e. the positive difference between the absorption wavelengths in the solvents dimethylformamide and dioxane, is <20 nm, particularly preferably <10 nm, very particularly preferably <5 nm

[2] = Solubility in coating solvent
[3] = in TFP (2,2,3,3-tetrafluoropropanol)

CCOC(=O)C1=C(C#N)C(=O)N(C)C(=O)/C1=C/C=C/N(C)C [Example 2]
ε (molar extinction coefficient) [1]: 31630 L/mol/cm | UV λmax ([1]; in DMF): 567 nm | UV λmax ([1]; in dioxane): 542 nm | λ1/2-λ1/10 [1]: 42 nm | Δλ (solvent-induced wavelength shift) ([1]; |λDMF−λdioxane|): 25 nm | Solubility [2, 3]: > 2%

CC1=C([n+]2ccccc2)C(=O)NC(=O)/C1=C/C=C1\N(C)c2ccccc2C1(C)C [Example 3]
ε (molar extinction coefficient) [1]: 86510 L/mol/cm | UV λmax ([1]; in methanol): 513 nm | λ1/2-λ1/10 [1]: 38 nm | Solubility [2, 3]: > 2%

CCCCCCCCCCCCN1C(=O)/C(=C/c2ccc(N(C)C)o2)C(=O)N(C)C1=O [Example 4]
ε (molar extinction coefficient) [1]: 53360 L/mol/cm | UV λmax ([1]; in dioxane): 483 nm | λ1/2-λ1/10 [1]: 32 nm | Solubility ([2]; in benzyl alcohol): > 1%
